Test results reported in the NIST ThermoML archive (doi:10.1016/j.fluid.2014.09.014).

Test: refractive index (other wavelength) (dimensionless); xn = mol fraction of the nth substance listed
Details: 308.15 K, 101 kPa, Liquid, Standard Abbe refractometry

CC(C)OC(C)C [diisopropyl ether] + CO
refractive index
Details	Wavelength=40.47 nm	Wavelength=435.8 nm	Wavelength=486.1 nm	Wavelength=546.1 nm	Wavelength=587.6 nm	Wavelength=589.3 nm	Wavelength=632.8 nm
x2 = 0	–	1.36739	1.36407	1.36127	1.36127	1.35983	1.35853
x2 = 0.0423	–	–	1.36395	1.36116	1.35972	1.35967	1.35842
x2 = 0.0424	–	1.36729	1.36404	1.36107	1.35977	1.35973	1.35859
x2 = 0.082	–	1.36727	1.36394	1.36114	1.35971	1.35966	1.35842
x2 = 0.0822	1.37037	1.36742	1.36409	1.3613	1.35986	1.3598	1.35855
x2 = 0.1171	1.37018	1.36725	1.36394	1.36113	1.3597	1.35965	1.35843
x2 = 0.1271	1.37021	1.36728	1.36394	1.36115	1.35972	1.35966	1.35843
x2 = 0.1827	1.36993	1.367	1.36368	1.3609	1.35947	1.35942	1.35818
x2 = 0.2162	1.36973	1.36681	1.36351	1.36071	1.35928	1.35923	1.35801
x2 = 0.251	1.36934	1.36642	1.36312	1.36037	1.35892	1.35889	1.35764
x2 = 0.3298	1.36925	1.36633	1.36304	1.36029	1.35886	1.35881	1.35757
x2 = 0.3577	1.36902	1.36611	1.36275	1.36006	1.35865	1.35856	1.35731
x2 = 0.4497	1.36699	1.36412	1.36085	1.35815	1.35673	1.35668	1.35545
x2 = 0.4525	1.36743	1.36455	1.36128	1.35854	1.35714	1.35709	1.35586
x2 = 0.522	1.36511	1.3623	1.35907	1.35635	1.35495	1.3549	1.3537
x2 = 0.5543	1.36433	1.36152	1.35831	1.35561	1.35422	1.35417	1.35297
x2 = 0.609	1.36183	1.35906	1.35589	1.35321	1.35182	1.35177	1.35057
x2 = 0.6529	1.36027	1.35752	1.35437	1.35171	1.35032	1.35027	1.34908
x2 = 0.7504	1.35626	1.35356	1.35046	1.34787	1.34649	1.34644	1.34527
x2 = 0.804	1.35193	1.34931	1.34626	1.34371	1.34236	1.34231	1.34115
x2 = 0.807	1.3517	1.34907	1.34606	1.3435	1.34213	1.34208	1.34093
x2 = 0.8727	1.34787	1.3453	1.34228	1.33978	1.33843	1.33838	1.33724
x2 = 0.9233	1.33956	1.33712	1.33421	1.33175	1.33046	1.33042	1.32933
x2 = 0.9253	1.34157	1.33909	1.33616	1.33368	1.33239	1.33234	1.33125
x2 = 0.9527	1.33839	1.33598	1.33306	1.33062	1.32932	1.32928	–
x2 = 0.9773	1.33485	1.3325	1.3296	1.32717	1.32591	1.32586	–
x2 = 0.989	1.33356	1.33124	1.32836	1.32594	1.32469	1.32465	–
x2 = 0.9964	1.33249	1.33018	1.32731	1.32489	1.32366	1.32361	–
